From the supplement of paper PMC11451515

Test system: SEM cells
Experiment: cell viability relative to DMSO control; higher = less cytotoxic
Settings: 48 h
In short: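 Before seeding, each leukemia line was adapted for at least four passages in each medium. NOMO1 or SEM cells (500 cells/well) and P12-Ichikawa cells (1000 cells/well) went into 1536-well plates at 5 μl, then received library compounds in DMSO by pin dosing across 11 threefold concentrations, 47 μM to 0.79 nM. Readout was CellTiter-Glo One luminescence after 48 h at 37°C, and viability is given as a per-plate percentage of DMSO wells, with cell-free wells as background.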

[1] = HPLM + 10% dialyzed FBS, 0.000781 µM
[2] = HPLM + 10% dialyzed FBS, 0.00234 µM
[3] = HPLM + 10% dialyzed FBS, 0.00702 µM
[4] = HPLM + 10% dialyzed FBS, 0.0211 µM
[5] = HPLM + 10% dialyzed FBS, 0.0632 µM
[6] = HPLM + 10% dialyzed FBS, 0.19 µM
[7] = HPLM + 10% dialyzed FBS, 0.569 µM
[8] = HPLM + 10% dialyzed FBS, 1.71 µM
[9] = HPLM + 10% dialyzed FBS, 5.12 µM
[10] = HPLM + 10% dialyzed FBS, 15.4 µM
[11] = HPLM + 10% dialyzed FBS, 46.1 µM
[12] = RPMI 5 mM glucose + 10% FBS, 0.000781 µM
[13] = RPMI 5 mM glucose + 10% FBS, 0.00234 µM
[14] = RPMI 5 mM glucose + 10% FBS, 0.00702 µM
[15] = RPMI 5 mM glucose + 10% FBS, 0.0211 µM
[16] = RPMI 5 mM glucose + 10% FBS, 0.0632 µM
[17] = RPMI 5 mM glucose + 10% FBS, 0.19 µM
[18] = RPMI 5 mM glucose + 10% FBS, 0.569 µM
[19] = RPMI 5 mM glucose + 10% FBS, 1.71 µM
[20] = RPMI 5 mM glucose + 10% FBS, 5.12 µM
[21] = RPMI 5 mM glucose + 10% FBS, 15.4 µM
[22] = RPMI 5 mM glucose + 10% FBS, 46.1 µM
[23] = RPMI 5 mM glucose + 10% dialyzed FBS, 0.000781 µM
[24] = RPMI 5 mM glucose + 10% dialyzed FBS, 0.00234 µM
[25] = RPMI 5 mM glucose + 10% dialyzed FBS, 0.00702 µM
[26] = RPMI 5 mM glucose + 10% dialyzed FBS, 0.0211 µM
[27] = RPMI 5 mM glucose + 10% dialyzed FBS, 0.0632 µM
[28] = RPMI 5 mM glucose + 10% dialyzed FBS, 0.19 µM
[29] = RPMI 5 mM glucose + 10% dialyzed FBS, 0.569 µM
[30] = RPMI 5 mM glucose + 10% dialyzed FBS, 1.71 µM
[31] = RPMI 5 mM glucose + 10% dialyzed FBS, 5.12 µM
[32] = RPMI 5 mM glucose + 10% dialyzed FBS, 15.4 µM
[33] = RPMI 5 mM glucose + 10% dialyzed FBS, 46.1 µM

Compound | cell viability [1] [%] | cell viability [2] [%] | cell viability [3] [%] | cell viability [4] [%] | cell viability [5] [%] | cell viability [6] [%] | cell viability [7] [%] | cell viability [8] [%] | cell viability [9] [%] | cell viability [10] [%] | cell viability [11] [%] | cell viability [12] [%] | cell viability [13] [%] | cell viability [14] [%] | cell viability [15] [%] | cell viability [16] [%] | cell viability [17] [%] | cell viability [18] [%] | cell viability [19] [%] | cell viability [20] [%] | cell viability [21] [%] | cell viability [22] [%] | cell viability [23] [%] | cell viability [24] [%] | cell viability [25] [%] | cell viability [26] [%] | cell viability [27] [%] | cell viability [28] [%] | cell viability [29] [%] | cell viability [30] [%] | cell viability [31] [%] | cell viability [32] [%] | cell viability [33] [%]
C/C=C(/C)C(=O)O[C@H]1C(C)=C[C@]23C(=O)[C@@H](C=C(CO)[C@@H](O)[C@]12O)[C@H]1[C@@H](C[C@H]3C)C1(C)C | 93.9 | 121 | 87.5 | 90 | 92.4 | 82.1 | 72 | 92.5 | 87.7 | 70.3 | 54.9 | 120 | 114 | 101 | 102 | 100 | 71.9 | 66.9 | 79.9 | 82.6 | 72.7 | 43.8 | 115 | 135 | 101 | 107 | 113 | 93.7 | 104 | 100 | 91.5 | 82.4 | 42.6
N[C@H](CSC(c1ccccc1)(c1ccccc1)c1ccccc1)C(=O)O | 105 | 99.3 | 113 | 99.4 | 117 | 97 | 102 | 94 | 69.4 | 54.9 | 14.7 | 44.8 | 74.6 | 75.2 | 68.2 | 71.1 | 60.9 | 69.8 | 52.3 | 47.2 | 18.7 | 2.79 | 100 | 105 | 122 | 86.5 | 106 | 95.6 | 94 | 82.1 | 60.8 | 40.1 | 12.8
CC(C)CC(=O)N[C@H](C(=O)N[C@H](C(=O)N[C@@H](CC(C)C)[C@@H](O)CC(=O)N[C@@H](C)C(=O)N[C@@H](CC(C)C)[C@@H](O)CC(=O)O)C(C)C)C(C)C | 94.4 | 89.1 | 109 | 103 | 74.7 | 95.9 | 101 | 108 | 97.7 | 96.6 | 14.5 | 82.7 | 96.7 | 115 | 94.7 | 68.1 | 104 | 106 | 99 | 98.7 | 89.6 | 10.4 | 93.5 | 116 | 92.2 | 93.4 | 73.1 | 110 | 95.5 | 99.1 | 94.9 | 91.6 | 10.9
CCOC(=O)\C1=C(/C)N\C2=C(C1C3=CC=C(C=C3)C4=CC=CC=C4)\C(=O)CC(C)(C)C2 (stereo not drawn) | 107 | 104 | 101 | 105 | 104 | 113 | 103 | 102 | 105 | 92 | 60.4 | 101 | 122 | 134 | 114 | 144 | 108 | 110 | 112 | 108 | 96.1 | 58.4 | 89.4 | 116 | 111 | 98.3 | 104 | 89.4 | 97.5 | 103 | 89.8 | 81.1 | 57.6
C[C@]12CCC(=O)C=C1CC[C@@H]1[C@@H]2CC[C@@]2(C)[C@H]1CC[C@]2(C)O | 93.6 | 72.8 | 86.5 | 29.9 | 86.7 | 91.1 | 68.3 | 84.9 | 90.9 | 65.6 | 78.7 | 101 | 105 | 97.3 | 29.8 | 98.1 | 95.5 | 96.1 | 74.3 | 102 | 95.8 | 85.4 | 95.5 | 82.2 | 86.9 | 41.9 | 95.2 | 98.6 | 107 | 99.7 | 100 | 98.9 | 97.4
COC1=C2OC(=O)\C=C/C2=CC3=C1OC=C3 | 121 | 117 | 129 | 126 | 124 | 123 | 121 | 115 | 116 | 107 | 93.4 |  |  |  |  |  |  |  |  |  |  |  | 123 | 132 | 124 | 110 | 123 | 133 | 128 | 109 | 115 | 108 | 93.7
O=C(O[C@H]1C[C@H]2CC[C@@H](C1)[N+]21CCCC1)C(O)(c1ccccc1)c1ccccc1.[Cl-] | 97.4 | 96.2 | 104 | 103 | 115 | 113 | 115 | 115 | 118 | 113 | 98.2 | 90 | 98.1 | 88.4 | 98.9 | 103 | 95.8 | 97.9 | 127 | 109 | 106 | 99.9 | 81 | 101 | 98.5 | 108 | 132 | 122 | 115 | 117 | 119 | 117 | 122
COc1cc2nccc(Oc3ccc(NC(=O)NC4CC4)c(Cl)c3)c2cc1C(N)=O | 116 | 117 | 126 | 118 | 108 | 108 | 88.7 | 79.2 | 69.1 | 56.2 | 51.4 | 93.5 | 117 | 105 | 98.4 | 97.1 | 98.8 | 72.2 | 80.4 | 63.2 | 44.2 | 32.1 | 119 | 110 | 122 | 114 | 104 | 90.8 | 81.4 | 75 | 59.3 | 53.7 | 47.9
